From PMC5405701 (ChemMedChem, 2017) come the findings set out here.

SMILES strings stand for the structures. Read-outs that look alike come from different tables or passages of the source. A value given as a limit tells only on which side of the number the result lay.

Experiment [1] concerns the target human ERβ ligand binding domain (LBD) (Homo sapiens, UniProt Q92731). The experiment is described as follows: competitive fluorometric. The conditions noted are these: for β/α: ratio of RBA ERβ to RBA ERα.
In experiment [2] the target is ERα (Homo sapiens, UniProt P03372). The experiment is described as follows: cell-based. It is filed as cell-based. The conditions noted are these: for Agonist Mode ERα Eff (%E2): maximal response as percentage of response to 10^−8 M E2, HEK293T; for transcriptional activity profile on ERα: reporter gene assay. Background: Reporter assays use an easily measured gene product as a stand-in for the process of interest.

In experiment [3] the target is ERβ (Homo sapiens, UniProt Q92731). The experiment is described as follows: cell-based. The class given is cell-based. The conditions noted are these: for Emax: HEK-293T, 24 h, read-out: Agonist Mode ERβ Eff (%E2); for transcriptional activity profile on ERβ: reporter gene assay, HEK293T.
For experiment [4], the system named is MCF-7 breast cancer cells. Description: antiproliferative activity, MTT assay, MCF-7. The conditions noted are these: Homo sapiens, MCF7, 72 h, read-out: MCF-7 Inhibition (%). In general terms: Tetrazolium assays rely on reduction of a dye to a coloured formazan, in cell work by metabolically active cells.

Sequence of human ERβ ligand binding domain (LBD) (Q92731 264-498 limits assumed): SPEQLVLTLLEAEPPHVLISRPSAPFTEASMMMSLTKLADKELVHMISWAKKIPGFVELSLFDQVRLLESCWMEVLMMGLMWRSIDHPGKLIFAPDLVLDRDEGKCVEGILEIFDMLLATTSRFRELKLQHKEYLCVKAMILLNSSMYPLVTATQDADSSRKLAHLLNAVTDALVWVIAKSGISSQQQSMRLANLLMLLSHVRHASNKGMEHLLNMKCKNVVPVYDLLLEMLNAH
Sequence of ERα (P03372 whole entry): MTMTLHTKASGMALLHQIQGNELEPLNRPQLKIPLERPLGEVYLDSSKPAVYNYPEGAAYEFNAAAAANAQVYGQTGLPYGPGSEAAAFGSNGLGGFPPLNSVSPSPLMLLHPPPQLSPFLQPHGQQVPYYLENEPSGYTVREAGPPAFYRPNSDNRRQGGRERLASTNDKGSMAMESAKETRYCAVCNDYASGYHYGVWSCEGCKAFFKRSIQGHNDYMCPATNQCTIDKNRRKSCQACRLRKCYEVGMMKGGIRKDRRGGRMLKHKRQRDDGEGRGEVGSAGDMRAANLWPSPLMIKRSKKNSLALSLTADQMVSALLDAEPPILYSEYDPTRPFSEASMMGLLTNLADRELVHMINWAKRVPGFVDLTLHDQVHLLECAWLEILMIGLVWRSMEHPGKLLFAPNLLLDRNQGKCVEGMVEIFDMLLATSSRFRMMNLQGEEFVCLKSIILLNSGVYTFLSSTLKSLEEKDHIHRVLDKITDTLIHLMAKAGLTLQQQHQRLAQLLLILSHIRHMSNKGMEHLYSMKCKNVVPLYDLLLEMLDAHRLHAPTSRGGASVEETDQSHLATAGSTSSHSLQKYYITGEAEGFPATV
Sequence of ERβ (Q92731 whole entry): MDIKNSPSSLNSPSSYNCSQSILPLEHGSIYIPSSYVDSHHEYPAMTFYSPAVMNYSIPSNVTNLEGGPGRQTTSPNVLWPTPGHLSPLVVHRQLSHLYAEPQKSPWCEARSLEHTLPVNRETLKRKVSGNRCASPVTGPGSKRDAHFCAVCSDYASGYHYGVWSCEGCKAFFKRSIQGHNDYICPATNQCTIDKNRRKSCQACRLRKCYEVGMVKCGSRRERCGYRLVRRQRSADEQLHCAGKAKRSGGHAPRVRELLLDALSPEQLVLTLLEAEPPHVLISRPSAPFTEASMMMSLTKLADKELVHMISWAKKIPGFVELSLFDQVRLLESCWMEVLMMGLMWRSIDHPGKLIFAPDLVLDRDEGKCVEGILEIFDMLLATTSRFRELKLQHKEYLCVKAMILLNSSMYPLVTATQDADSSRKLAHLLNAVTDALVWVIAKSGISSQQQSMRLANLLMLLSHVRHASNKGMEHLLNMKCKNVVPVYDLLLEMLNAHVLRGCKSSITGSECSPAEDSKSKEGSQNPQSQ

For the compound `Oc1ccc(-c2ccc(-c3ccc(O)cc3)[se]2)cc1` [Compound 2a, 2,5-Bis(4-hydroxyphenyl)selenophene], the β/α in experiment [1] amounted to 4.70. Besides, in experiment [2], the “Agonist Mode ERα Eff (%E2)” value is on record as 16 ± 2 %E2. For the same compound, in experiment [2] (HEK293T), the “transcriptional activity profile on ERα” value is “partial antagonist”. Also, in experiment [3], the Emax was 11 ± 4% and the “transcriptional activity profile on ERβ” value is “partial antagonist”. For the same compound, the inhibition at 10 µM in experiment [4] was determined as 0%.

Take `Cc1cc(O)ccc1-c1ccc(-c2ccc(O)cc2C)[se]1` [Compound 2b, 2,5-Bis(4-hydroxy-2-methylphenyl)selenophene]: in experiment [1], the β/α worked out at 1.98. In experiment [2], the EC50 turned out to be 1360 nM and the “Agonist Mode ERα Eff (%E2)” value is given as 157 ± 12 %E2. Besides, the “efficacy on ERα, times greater than that of estradiol” value in experiment [2] (agonist mode) came to 1.5 times. Further, in experiment [2] (HEK293T), the “transcriptional activity profile on ERα” value is “superagonist”. For the same compound, in experiment [3], the EC50 is 79 nM, the Emax is 82 ± 7% and the “transcriptional activity profile on ERβ” value is listed as “agonist”. Further, in experiment [4], the inhibition at 10 µM is 3.4%.

Turning to `Cc1cc(-c2ccc(-c3ccc(O)c(C)c3)[se]2)ccc1O` [Compound 2c, 2,5-Bis(4-hydroxy-3-methylphenyl)selenophene], the β/α in experiment [1] is recorded as above 94. Also, in experiment [2], the “Agonist Mode ERα Eff (%E2)” value is on record as 33 ± 6 %E2. In experiment [2] (HEK293T), the “transcriptional activity profile on ERα” value is “inactive”. Further, in experiment [3], the Emax is 24 ± 3% and the “transcriptional activity profile on ERβ” value was “inactive”. Besides, in experiment [4], the inhibition at 10 µM is 9.3%.

For `Cc1cc(-c2ccc(-c3cc(C)c(O)c(C)c3)[se]2)cc(C)c1O` [Compound 2d, 2,5-Bis(4-hydroxy-3,5-dimethylphenyl)selenophene], the β/α in experiment [1] was above 121. Further, in experiment [2], the “Agonist Mode ERα Eff (%E2)” value is listed as 12 ± 4 %E2. Also, in experiment [2] (HEK293T), the “transcriptional activity profile on ERα” value was “inactive”. Further, in experiment [3], the Emax was determined as 38 ± 6% and the “transcriptional activity profile on ERβ” value was “inactive”. The inhibition at 10 µM in experiment [4] is 0%.

`Cc1cc(O)cc(C)c1-c1ccc(-c2c(C)cc(O)cc2C)[se]1` [Compound 2e, 2,5-Bis(4-hydroxy-2,6-dimethylphenyl)selenophene]: the β/α in experiment [1] is 1.00. Besides, in experiment [2], the “Agonist Mode ERα Eff (%E2)” value is recorded as −7 ± 3 %E2. Further, in experiment [3], the EC50 amounted to 434 nM and the Emax stood at 60 ± 4%. Also, the inhibition at 10 µM in experiment [4] was determined as 19.3%.

As for `Oc1ccc(-c2ccc(-c3ccc(O)cc3F)[se]2)c(F)c1` [Compound 2f, 2,5-Bis(2-fluoro-4-hydroxyphenyl)selenophene], the β/α in experiment [1] stood at 4.11. Also, the “fold better binding to ERβ than 2a” value in experiment [1] (relative to 2a) is on record as 8 fold. In experiment [2], the EC50 was 230 nM and the “Agonist Mode ERα Eff (%E2)” value is reported as 68 ± 2 %E2. Further, the “ERα agonist potency, fold more potent than 2b” value in experiment [2] (agonist mode, relative to 2b) is listed as “about 6 fold”. Moreover, the “transcriptional activity profile on ERα” value in experiment [2] (HEK293T) is listed as “full ERα agonist”. In addition, in experiment [3], the response was half-maximal at 170 nM (EC50) and the Emax worked out at 71 ± 1%. The inhibition at 10 µM in experiment [4] turned out to be 10.5%.

Turning to `Oc1ccc(-c2ccc(-c3ccc(O)cc3Cl)[se]2)c(Cl)c1` [Compound 2g, 2,5-Bis(2-chloro-4-hydroxyphenyl)selenophene], the β/α in experiment [1] came to 2.07. In experiment [2], the “Agonist Mode ERα Eff (%E2)” value is recorded as 44 ± 13 %E2. For the same compound, in experiment [2] (read-out: Agonist Mode ERα EC50, compound alone up to 10^−5 M, HEK293T), the EC50 was 1280 nM. Further, the Emax in experiment [3] stood at 14 ± 5%. For the same compound, the inhibition at 10 µM in experiment [4] was determined as 19.6%.

Consider `Oc1ccc(-c2ccc(-c3ccc(O)c(Cl)c3)[se]2)cc1Cl` [Compound 2h, 2,5-Bis(3-chloro-4-hydroxyphenyl)selenophene], for which the β/α in experiment [1] is 5.10. In experiment [2], it took 40 nM to reach a half-maximal effect (EC50) and the “Agonist Mode ERα Eff (%E2)” value was 49 ± 3 %E2. The “transcriptional activity profile on ERα” value in experiment [2] (HEK293T) is on record as “partial agonist”. Further, the Emax in experiment [3] was determined as 22 ± 8%. Further, the inhibition at 10 µM in experiment [4] was determined as 5.3%.

For `Oc1ccc(F)c(-c2ccc(-c3cc(O)ccc3F)[se]2)c1` [Compound 2i, 2,5-Bis(2-fluoro-5-hydroxyphenyl)selenophene], the β/α in experiment [1] is given as 0.90. Besides, the “Agonist Mode ERα Eff (%E2)” value in experiment [2] came to 25 ± 8 %E2. Besides, in experiment [3], the EC50 is 130 nM, the Emax stood at 55 ± 5% and the “transcriptional activity profile on ERβ” value is recorded as “partial agonist”. In addition, the inhibition at 10 µM in experiment [4] was determined as 17.9%.

As for `Oc1cc(-c2ccc(-c3ccc(F)c(O)c3)[se]2)ccc1F` [Compound 2j, 2,5-Bis(4-fluoro-5-hydroxyphenyl)selenophene], in experiment [1], the β/α turned out to be 3.37. For the same compound, the “Agonist Mode ERα Eff (%E2)” value in experiment [2] is listed as 25 ± 8 %E2. In experiment [3], the concentration giving a half-maximal response (EC50) worked out at 150 nM, the Emax amounted to 42 ± 10% and the “transcriptional activity profile on ERβ” value was “partial agonist”. Also, the inhibition at 10 µM in experiment [4] worked out at 4.4%.

On to `Oc1ccc(-c2c[se]cc2-c2ccc(O)cc2)cc1` [Compound 4a, 3,4-Bis(4-hydroxyphenyl)selenophene], for which, in experiment [1], the β/α is given as 6.28. The “Agonist Mode ERα Eff (%E2)” value in experiment [2] came out at 7 ± 3 %E2. For the same compound, in experiment [3], the Emax is 16 ± 7% and the “transcriptional activity profile on ERβ” value is “antagonist”. Further, the inhibition at 10 µM in experiment [4] was determined as 0%.

Take `Cc1cc(O)ccc1-c1c[se]cc1-c1ccc(O)cc1C` [Compound 4b, 3,4-Bis(4-hydroxy-2-methylphenyl)selenophene]: the β/α in experiment [1] was determined as 24.81. For the same compound, the “Agonist Mode ERα Eff (%E2)” value in experiment [2] is 19 ± 4 %E2. Besides, in experiment [3], the EC50 worked out at 34 nM and the Emax worked out at 62 ± 8%. Moreover, the inhibition at 10 µM in experiment [4] turned out to be 0%.

For the compound `Cc1cc(-c2c[se]cc2-c2ccc(O)c(C)c2)ccc1O` [Compound 4c, 3,4-Bis(4-hydroxy-3-methylphenyl)selenophene], the β/α in experiment [1] is on record as 0.87. For the same compound, in experiment [2], the half-maximal effective concentration (EC50) was 320 nM and the “Agonist Mode ERα Eff (%E2)” value came out at 32 ± 8 %E2. In addition, in experiment [3], the EC50 came out at 1150 nM and the Emax stood at 54 ± 10%. Further, in experiment [4], the inhibition at 10 µM amounted to 0%.

In the case of `Oc1ccc(-c2c[se]cc2-c2ccc(O)c(F)c2)cc1F` [Compound 4d, 3,4-Bis(3-fluoro-4-hydroxyphenyl)selenophene], the β/α in experiment [1] worked out at 2.67. The “Agonist Mode ERα Eff (%E2)” value in experiment [2] is on record as 21 ± 6 %E2. Further, the Emax in experiment [3] turned out to be 21 ± 3%. Also, the inhibition at 10 µM in experiment [4] worked out at 0%.

With `Oc1ccc(-c2c[se]cc2-c2ccc(O)cc2F)c(F)c1` [Compound 4e, 3,4-Bis(2-fluoro-4-hydroxyphenyl)selenophene], the β/α in experiment [1] is recorded as 2.19. In addition, the “Agonist Mode ERα Eff (%E2)” value in experiment [2] came out at 35 ± 5 %E2. Also, the Emax in experiment [3] was found to be 17 ± 2%. Further, in experiment [4], the inhibition at 10 µM was 0%.

In the case of `Cc1cc(-c2cc(Br)c(-c3ccc(O)c(C)c3)[se]2)ccc1O` [Compound 6c, 3-Bromo-2,5-bis(4-hydroxy-3-methylphenyl)selenophene], the β/α in experiment [1] is reported as 4.40. For the same compound, in experiment [2], the “Agonist Mode ERα Eff (%E2)” value is −3 ± 1 %E2. Also, in experiment [3], it took 441 nM to reach a half-maximal effect (EC50) and the Emax was found to be 46 ± 1%. Besides, in experiment [4], the inhibition at 10 µM came out at 26.1%.

Consider `Cc1cc(-c2cc(Br)c(-c3cc(C)c(O)c(C)c3)[se]2)cc(C)c1O` [Compound 6d, 3-Bromo-2,5-bis(4-hydroxy-3,5-dimethylphenyl)selenophene], for which the β/α in experiment [1] is listed as 0.43. In addition, the “Agonist Mode ERα Eff (%E2)” value in experiment [2] was found to be 16 ± 4 %E2. The Emax in experiment [3] was 15 ± 6%. The inhibition at 10 µM in experiment [4] stood at 26.5%.

One may read the inhibition as the percentage by which the read-out fell short of the control. As usually defined, the EC50 is the midpoint of the concentration-response curve.
